# Key:
# L1210 leukemia = assay: Survival time of mice bearing the L1210 leukemia; type: in vivo, mouse (CDF-1 mice); conditions: for Av. Change wt. %: L1210 mice
# Source text: The ascites cell forms of the L1210 leukemia, Sarcoma 180 and P388 leukemia were propagated in CDF-1 mice. […] Mice were weighed during the course of the experiments, and the percentage change in body weight from the onset to termination of therapy was used as an indication of host toxicity.
# Each value represents the average of 5 animals per group.
# P388 leukemia = assay: Survival time of mice bearing the P388 leukemia; type: in vivo, mouse (CDF-1 mice); conditions: at 150 mg/kg
# Description: The tumor-inhibitory properties of compounds 1-12 were determined by measuring their effects on the survival time of mice bearing the L1210 leukemia and in some cases Sarcoma 180, and the P388 leukemia. The ascites cell forms of the L1210 leukemia, Sarcoma 180 and P388 leukemia were propagated in CDF-1 mice. Transplantation was carried out using donor mice bearing 7-day tumor growths; experimental details are described in Agrawal et al., J. Med. Chem., 11, 700, 1968, incorporated herein by reference. Mice were weighed during the course of the experiments, and the percentage change in body weight from the onset to termination of therapy was used as an indication of host toxicity.
# B16 melanoma = assay: Survival time of mice bearing the B16 melanoma; type: in vivo, mouse (C57B1 mice); conditions: for Max. % T/C: Table IV, B16, at optimum effective daily dose; for Av. Change in wt., %: at optimum effective daily dose, B16 mice
# Description: This tumor was propagated in C57B1mice. Transplantation was carried out by removing tumors from donor mice bearing 14-day subcutaneous tumor growths. The tissue was fragmented to make a well-dispersed cellular suspension and diluted with Fischer's medium without serum so that one gram of tissue was suspended in 5 ml of solution. A portion (0.2 ml) of the resulting cell suspension was injected intraperitoneally into each recipient animal. All compounds were administered over a wide range of dosage levels by intraperitoneal injection, beginning 24 hours after tumor implantation, once daily for 6 consecutive days. The test compounds were injected as fine suspensions following homogenization in 2 to 3 drops of 20% aqueous Tween 80 and then made up to volume with isotonic saline. […] Mice were weighed during the course of the experiments, and the percent change in body weight from onset to termination of therapy was used as an indication of drug toxicity. Determination of the sensitivity of neoplasms to these agents was based on the prolongation of survival time afforded by the drug treatments.
# ^a Administered once daily for six consecutive days, beginnign 24
# hours after tumor transplanation, with 5 animals being used per group.
# ^b Average change in body weight from onset to termination of therapy
# ^c % T/C = average survival time of treated/control animals ×
# 100. Each value represents the average of 5 animals per group.
# B16 melanoma cells = assay: Cytotoxicity: colony-forming ability of B16 melanoma cells; type: cell-based; conditions: Mus musculus, 1 hour exposure, 12 days incubation, average of two determinations, read-out: LD50 (the source's name)
# Description: The cytotoxicity of compounds 8 and 12 was determined by measuring their effects on the colony-forming ability of B16 melanoma cells. The cells were maintained in Eagle's minimum essential medium supplemented with 10% fetal bovine serum. To obtain exponentially growing B16 melanoma cells, a 25 cm^2 flask was inoculated with 10^5 cells for two days before addition of drug. The cell monolayer was exposed to various concentrations of compound for 1 hour. After exposure, the layer was washed twice with PBS to remove the compound. The cells were harvested with 2 mM EDTA in PBS, and 200 cells were plated on a 60 mm dish with 5 mL of medium. After incubation for 12 days, the colonies were stained with crystal violet and counted. […] The LD50 was determined from the individual dose-response curves.
# [1] = 50 mg/kg once daily for six days
# [2] = 100 mg/kg once daily for six days
# [3] = 150 mg/kg once daily for six days
# [4] = 10 mg/kg once daily for six days
# [5] = 20 mg/kg once daily for six days
# [6] = 30 mg/kg once daily for six days
smiles,measurement,setting,value
"COc1ccc(S(=O)(=O)NN(C)S(=O)(=O)c2ccc(OC)cc2)cc1 [Compound 9, N,N'-bis (p-methoxybenzenesulfonyl)-N-methylhydrazine]","Average Survival Time of Treated Animals, days ± SE",L1210 leukemia; [1],13.4 ± 1.0 days
same,Av. Change wt. %,L1210 leukemia; [1],+10.9%
same,"Average Survival Time of Treated Animals, days ± SE",L1210 leukemia; [2],13.2 ± 1.1 days
same,Av. Change wt. %,L1210 leukemia; [2],+1.9%
same,"Average Survival Time of Treated Animals, days ± SE",L1210 leukemia; [3],12.2 ± 1.2 days
same,Av. Change wt. %,L1210 leukemia; [3],-1.6%
same,response vs control in vivo at 50 mg/kg,"L1210 leukemia; Mus musculus, 144 h, 50 mg/kg once daily for six days, L1210, read-out: % T/C",149%
same,response vs control in vivo at 100 mg/kg,"L1210 leukemia; Mus musculus, 144 h, 100 mg/kg once daily for six days, L1210, read-out: % T/C",147%
same,response vs control in vivo at 150 mg/kg,"L1210 leukemia; Mus musculus, 144 h, 150 mg/kg once daily for six days, L1210, read-out: % T/C",136%
same,Max. % T/C vs. P388 leukemia,P388 leukemia,136 % T/C
same,Max. % T/C,B16 melanoma,191 % T/C
same,"Av. Change in wt., %",B16 melanoma,+2.4%
Cc1ccc(S(=O)(=O)N(C)NS(C)(=O)=O)cc1 [Compound 12],"Average Survival Time of Treated Animals, days ± SE",L1210 leukemia; [4],14.8 ± 0.4 days
same,Av. Change wt. %,L1210 leukemia; [4],+9.1%
same,"Average Survival Time of Treated Animals, days ± SE",L1210 leukemia; [5],15.0 ± 0.7 days
same,Av. Change wt. %,L1210 leukemia; [5],-2.0%
same,"Average Survival Time of Treated Animals, days ± SE",L1210 leukemia; [6],19.2 ± 2.0 days
same,Av. Change wt. %,L1210 leukemia; [6],-7.9%
same,response vs control in vivo at 10 mg/kg,"L1210 leukemia; Mus musculus, 144 h, 10 mg/kg once daily for six days, L1210, read-out: % T/C",161%
same,response vs control in vivo at 20 mg/kg,"L1210 leukemia; Mus musculus, 144 h, 20 mg/kg once daily for six days, L1210, read-out: % T/C",163%
same,response vs control in vivo at 30 mg/kg,"L1210 leukemia; Mus musculus, 144 h, 30 mg/kg once daily for six days, L1210, read-out: % T/C",209%
same,activity against the L1210 leukemia (in words),"L1210 leukemia; mouse, in vivo",high level of activity against the L1210 leukemia
same,IC50,B16 melanoma cells,620 nM
same,% T/C,"B16 melanoma; B16, daily dosage of 10 mg/kg (Table IV footnote d)",206 % T/C
same,% T/C,"B16 melanoma; B16, daily dosage of 20 mg/kg (Table IV footnote d)",206 % T/C
same,dosage range of activity against the B16 melanoma,B16 melanoma; B16 melanoma in mice,10 to 30 mg/kg
same,Max. % T/C,B16 melanoma,207 % T/C
same,toxicity at higher dosage levels (in words),B16 melanoma; above 10-30 mg/kg,toxic at higher dosage levels
same,"Av. Change in wt., %",B16 melanoma,-1.9%

# From US4892887A, “N,N'-bis(sulfonyl)hydrazines having antineoplastic activity” (Yale University, priority 1988, dated 1990)
